Data as given in ChEMBL document CHEMBL4507299, “Data for DCP probe PF-04554878” (2021).

Columns and labels:
[1] = biological target: Bone morphogenetic protein receptor type-1A (Homo sapiens) (UniProt P36894)
[2] = biological target: Megakaryocyte-associated tyrosine-protein kinase (Homo sapiens) (UniProt P42679)
[3] = biological target: Macrophage colony-stimulating factor 1 receptor (Homo sapiens) (UniProt P07333)
[4] = tested on: Tyrosine-protein kinase ABL1 (Homo sapiens), P00519 [H396P]
[5] = biological target: Wee1-like protein kinase (Homo sapiens) (UniProt P30291)
[6] = biological target: Serine/threonine-protein kinase pim-1 (Homo sapiens) (UniProt P11309)
[7] = biological target: NUAK family SNF1-like kinase 2 (Homo sapiens) (UniProt Q9H093)
[8] = biological target: Tyrosine-protein kinase JAK1 (Homo sapiens) (UniProt P23458)
[9] = biological target: Serine/threonine-protein kinase SIK1 (Homo sapiens) (UniProt P57059)
[10] = biological target: 5-hydroxytryptamine receptor 6 (Homo sapiens) (UniProt P50406); settings: Compound concentration 10.0 uM
[11] = biological target: Cyclin-dependent kinase 4 (Homo sapiens) (UniProt P11802)
[12] = biological target: Tyrosine-protein kinase ITK/TSK (Homo sapiens) (UniProt Q08881)
[13] = biological target: Mitogen-activated protein kinase kinase kinase 14 (Homo sapiens) (UniProt Q99558)
[14] = tested on: Tyrosine-protein kinase ABL1 (Homo sapiens), P00519 [M351T]
Focal adhesion kinase 1 = Focal adhesion kinase 1 (Homo sapiens, UniProt Q05397)
[15] = biological target: Ribosomal protein S6 kinase beta-1 (Homo sapiens) (UniProt P23443)
[16] = biological target: Mitogen-activated protein kinase kinase kinase kinase 5 (Homo sapiens) (UniProt Q9Y4K4)
[17] = biological target: Alpha-2C adrenergic receptor (Homo sapiens) (UniProt P18825); settings: Compound concentration 10.0 uM
[18] = tested on: Mast/stem cell growth factor receptor Kit (Homo sapiens), P10721 [D816V]
[19] = biological target: Cyclin-dependent kinase 4 (Homo sapiens) (UniProt P11802); remark: listed apart in the source
[20] = biological target: Macrophage colony-stimulating factor 1 receptor (Homo sapiens) (UniProt P07333); remark: listed apart in the source
[21] = biological target: Serine/threonine-protein kinase MAK (Homo sapiens) (UniProt P20794)
[22] = biological target: Serine/threonine-protein kinase Chk2 (Homo sapiens) (UniProt O96017)
[23] = biological target: T1, Serine/threonine-protein kinase 3 (Homo sapiens) (UniProt Q13188)
T1 sequence (whole entry): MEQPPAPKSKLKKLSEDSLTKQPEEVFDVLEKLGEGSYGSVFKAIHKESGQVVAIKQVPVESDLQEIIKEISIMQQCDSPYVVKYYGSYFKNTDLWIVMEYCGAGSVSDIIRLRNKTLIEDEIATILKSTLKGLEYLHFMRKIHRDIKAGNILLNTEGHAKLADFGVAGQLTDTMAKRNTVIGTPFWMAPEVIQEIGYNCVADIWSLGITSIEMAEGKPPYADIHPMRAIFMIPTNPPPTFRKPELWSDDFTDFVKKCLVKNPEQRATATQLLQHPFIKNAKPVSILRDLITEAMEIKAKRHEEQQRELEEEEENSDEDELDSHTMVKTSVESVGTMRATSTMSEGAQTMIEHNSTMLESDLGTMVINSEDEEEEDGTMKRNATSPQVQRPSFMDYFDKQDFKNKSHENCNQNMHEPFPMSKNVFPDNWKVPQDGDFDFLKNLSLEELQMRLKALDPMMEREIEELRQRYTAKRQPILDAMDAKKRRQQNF

[24] = biological target: Phosphatidylinositol 4-kinase beta (Homo sapiens) (UniProt Q9UBF8)
[25] = biological target: Phosphatidylinositol 4-phosphate 5-kinase type-1 alpha (Homo sapiens) (UniProt Q99755)
[26] = biological target: Dual specificity protein kinase CLK1 (Homo sapiens, UniProt P49759)
[27] = tested on: Tyrosine-protein kinase ABL1 (Homo sapiens), P00519 [T315I]
[28] = biological target: Serine/threonine-protein kinase PAK 6 (Homo sapiens) (UniProt Q9NQU5)
[29] = biological target: Calcium/calmodulin-dependent protein kinase type 1 (Homo sapiens) (UniProt Q14012)
[30] = tested on: Mast/stem cell growth factor receptor Kit (Homo sapiens), P10721 [V559D,T670I]
[31] = biological target: LIM domain kinase 1 (Homo sapiens) (UniProt P53667)
[32] = biological target: Serine/threonine-protein kinase pim-3 (Homo sapiens) (UniProt Q86V86)
[33] = biological target: Serine/threonine-protein kinase PAK 5 (Homo sapiens) (UniProt Q9P286)
[34] = biological target: Phosphorylase b kinase gamma catalytic chain, skeletal muscle/heart isoform (Homo sapiens) (UniProt Q16816)
[35] = biological target: Mitogen-activated protein kinase kinase kinase 12 (Homo sapiens) (UniProt Q12852)
[36] = biological target: Bone morphogenetic protein receptor type-1B (Homo sapiens) (UniProt O00238)
[37] = tested on: Proto-oncogene tyrosine-protein kinase receptor Ret (Homo sapiens), P07949 [M918T]
[38] = Compound concentration 100.0 nM
[39] = Compound concentration 1000.0 nM

Sequence of Macrophage colony-stimulating factor 1 receptor (Homo sapiens) (P07333 whole entry): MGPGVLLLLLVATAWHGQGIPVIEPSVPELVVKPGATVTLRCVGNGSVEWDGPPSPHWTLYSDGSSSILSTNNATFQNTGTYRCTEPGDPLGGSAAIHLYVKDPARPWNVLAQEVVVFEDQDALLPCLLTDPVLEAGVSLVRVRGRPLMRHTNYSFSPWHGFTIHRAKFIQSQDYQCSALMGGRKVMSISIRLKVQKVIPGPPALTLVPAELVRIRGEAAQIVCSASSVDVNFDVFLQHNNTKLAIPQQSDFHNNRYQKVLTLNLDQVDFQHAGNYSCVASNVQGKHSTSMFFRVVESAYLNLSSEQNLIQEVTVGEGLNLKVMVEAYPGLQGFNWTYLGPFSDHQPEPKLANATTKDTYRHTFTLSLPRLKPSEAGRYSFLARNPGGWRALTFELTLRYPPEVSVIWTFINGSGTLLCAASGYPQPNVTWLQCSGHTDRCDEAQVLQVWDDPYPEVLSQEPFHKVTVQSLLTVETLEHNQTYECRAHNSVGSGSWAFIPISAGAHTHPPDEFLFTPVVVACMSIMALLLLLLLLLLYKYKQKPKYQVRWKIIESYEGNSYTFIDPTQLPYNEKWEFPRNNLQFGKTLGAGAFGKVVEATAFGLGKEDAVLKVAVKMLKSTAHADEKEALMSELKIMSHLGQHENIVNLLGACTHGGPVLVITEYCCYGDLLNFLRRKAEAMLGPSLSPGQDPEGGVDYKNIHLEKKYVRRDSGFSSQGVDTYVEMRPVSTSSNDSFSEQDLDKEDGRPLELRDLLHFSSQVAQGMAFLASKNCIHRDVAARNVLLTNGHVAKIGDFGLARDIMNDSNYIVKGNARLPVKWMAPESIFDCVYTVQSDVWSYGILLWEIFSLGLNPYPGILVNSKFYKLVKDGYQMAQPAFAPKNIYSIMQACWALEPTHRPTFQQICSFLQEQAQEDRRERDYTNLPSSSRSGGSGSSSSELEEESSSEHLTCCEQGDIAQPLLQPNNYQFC
Sequence of Cyclin-dependent kinase 4 (Homo sapiens) (P11802 whole entry): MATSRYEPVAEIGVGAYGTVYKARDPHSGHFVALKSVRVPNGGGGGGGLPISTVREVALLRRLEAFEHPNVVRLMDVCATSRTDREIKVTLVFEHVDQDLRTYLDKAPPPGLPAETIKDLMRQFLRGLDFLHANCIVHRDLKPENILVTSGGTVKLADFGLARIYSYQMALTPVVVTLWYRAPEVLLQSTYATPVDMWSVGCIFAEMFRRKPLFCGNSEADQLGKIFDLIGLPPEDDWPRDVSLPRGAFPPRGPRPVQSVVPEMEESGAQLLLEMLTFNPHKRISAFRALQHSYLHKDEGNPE
Sequence of LIM domain kinase 1 (Homo sapiens) (P53667 whole entry, looked up, the tested form may be a part): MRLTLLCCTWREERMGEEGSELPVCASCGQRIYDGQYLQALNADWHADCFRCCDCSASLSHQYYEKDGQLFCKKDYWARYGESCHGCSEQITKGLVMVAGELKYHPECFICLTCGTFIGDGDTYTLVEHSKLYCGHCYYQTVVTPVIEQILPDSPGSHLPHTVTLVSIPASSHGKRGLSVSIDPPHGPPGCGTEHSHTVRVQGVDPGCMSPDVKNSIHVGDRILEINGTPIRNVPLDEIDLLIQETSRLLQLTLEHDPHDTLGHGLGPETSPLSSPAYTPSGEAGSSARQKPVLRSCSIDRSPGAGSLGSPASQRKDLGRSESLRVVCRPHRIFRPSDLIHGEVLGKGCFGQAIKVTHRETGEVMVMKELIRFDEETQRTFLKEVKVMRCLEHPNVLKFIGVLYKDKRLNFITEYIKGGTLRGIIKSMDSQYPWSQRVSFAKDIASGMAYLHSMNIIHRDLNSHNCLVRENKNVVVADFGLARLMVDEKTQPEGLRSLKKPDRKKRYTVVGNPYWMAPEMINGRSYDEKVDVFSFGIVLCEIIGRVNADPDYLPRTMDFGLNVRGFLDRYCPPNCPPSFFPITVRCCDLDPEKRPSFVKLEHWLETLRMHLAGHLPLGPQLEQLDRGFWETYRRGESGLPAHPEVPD
Sequence of NUAK family SNF1-like kinase 2 (Homo sapiens) (Q9H093 whole entry): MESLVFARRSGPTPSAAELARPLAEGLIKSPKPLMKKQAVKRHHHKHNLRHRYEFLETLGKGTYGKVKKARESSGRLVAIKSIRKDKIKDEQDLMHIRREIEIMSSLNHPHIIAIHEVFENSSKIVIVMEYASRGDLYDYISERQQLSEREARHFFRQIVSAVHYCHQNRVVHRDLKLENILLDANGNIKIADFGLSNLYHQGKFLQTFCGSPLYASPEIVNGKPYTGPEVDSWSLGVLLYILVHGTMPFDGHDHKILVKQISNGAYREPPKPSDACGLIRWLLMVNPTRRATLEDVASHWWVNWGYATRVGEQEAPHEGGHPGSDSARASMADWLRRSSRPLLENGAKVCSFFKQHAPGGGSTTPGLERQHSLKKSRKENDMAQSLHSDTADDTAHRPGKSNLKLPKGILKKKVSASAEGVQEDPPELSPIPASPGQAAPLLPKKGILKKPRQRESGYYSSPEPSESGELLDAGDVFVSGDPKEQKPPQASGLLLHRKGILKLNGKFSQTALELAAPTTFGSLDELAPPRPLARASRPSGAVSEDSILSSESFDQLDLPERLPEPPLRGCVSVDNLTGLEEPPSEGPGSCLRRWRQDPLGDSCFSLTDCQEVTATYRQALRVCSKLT
Sequence of Mitogen-activated protein kinase kinase kinase kinase 5 (Homo sapiens) (Q9Y4K4 whole entry, looked up): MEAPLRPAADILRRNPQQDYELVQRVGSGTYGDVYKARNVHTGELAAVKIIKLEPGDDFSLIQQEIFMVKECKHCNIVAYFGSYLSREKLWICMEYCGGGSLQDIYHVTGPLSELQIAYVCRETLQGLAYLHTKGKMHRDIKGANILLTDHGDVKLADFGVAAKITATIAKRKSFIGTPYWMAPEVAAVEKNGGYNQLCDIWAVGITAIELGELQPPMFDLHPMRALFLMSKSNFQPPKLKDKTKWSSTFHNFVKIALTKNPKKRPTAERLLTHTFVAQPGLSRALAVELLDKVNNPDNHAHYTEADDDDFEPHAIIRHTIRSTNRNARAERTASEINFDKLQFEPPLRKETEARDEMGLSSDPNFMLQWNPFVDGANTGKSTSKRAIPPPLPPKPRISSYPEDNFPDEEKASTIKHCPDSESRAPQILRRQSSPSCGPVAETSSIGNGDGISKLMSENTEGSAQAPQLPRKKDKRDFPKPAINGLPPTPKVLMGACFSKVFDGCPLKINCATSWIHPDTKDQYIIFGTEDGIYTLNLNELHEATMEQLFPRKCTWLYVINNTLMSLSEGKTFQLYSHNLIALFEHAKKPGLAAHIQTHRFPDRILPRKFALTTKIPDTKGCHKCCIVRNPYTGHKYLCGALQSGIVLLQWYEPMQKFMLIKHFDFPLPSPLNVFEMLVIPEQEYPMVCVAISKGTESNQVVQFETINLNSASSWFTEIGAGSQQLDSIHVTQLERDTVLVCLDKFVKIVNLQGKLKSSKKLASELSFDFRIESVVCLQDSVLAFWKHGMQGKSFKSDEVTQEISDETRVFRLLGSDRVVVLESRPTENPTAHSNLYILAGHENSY
Sequence of Serine/threonine-protein kinase SIK1 (Homo sapiens) (P57059 whole entry): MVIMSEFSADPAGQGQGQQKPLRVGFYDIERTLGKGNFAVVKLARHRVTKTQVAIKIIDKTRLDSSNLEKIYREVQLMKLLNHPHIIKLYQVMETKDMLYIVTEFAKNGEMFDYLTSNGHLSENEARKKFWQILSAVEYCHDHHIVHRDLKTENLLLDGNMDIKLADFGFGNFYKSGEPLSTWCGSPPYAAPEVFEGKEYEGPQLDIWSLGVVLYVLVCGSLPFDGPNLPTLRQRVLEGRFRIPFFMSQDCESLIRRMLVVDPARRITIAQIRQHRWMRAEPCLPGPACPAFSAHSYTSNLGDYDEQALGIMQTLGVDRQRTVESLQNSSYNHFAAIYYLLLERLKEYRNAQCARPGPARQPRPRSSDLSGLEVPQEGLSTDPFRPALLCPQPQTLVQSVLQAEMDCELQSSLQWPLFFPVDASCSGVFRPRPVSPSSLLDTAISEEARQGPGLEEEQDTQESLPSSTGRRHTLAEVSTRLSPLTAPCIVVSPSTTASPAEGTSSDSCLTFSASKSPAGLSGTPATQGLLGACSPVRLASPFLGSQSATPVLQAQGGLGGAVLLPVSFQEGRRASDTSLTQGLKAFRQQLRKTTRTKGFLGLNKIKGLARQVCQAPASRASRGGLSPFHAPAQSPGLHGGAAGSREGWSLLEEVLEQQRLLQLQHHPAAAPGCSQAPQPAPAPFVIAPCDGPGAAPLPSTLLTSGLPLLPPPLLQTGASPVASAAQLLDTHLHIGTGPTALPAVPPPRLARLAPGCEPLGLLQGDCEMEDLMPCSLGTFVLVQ
Sequence of Bone morphogenetic protein receptor type-1B (Homo sapiens) (O00238 whole entry): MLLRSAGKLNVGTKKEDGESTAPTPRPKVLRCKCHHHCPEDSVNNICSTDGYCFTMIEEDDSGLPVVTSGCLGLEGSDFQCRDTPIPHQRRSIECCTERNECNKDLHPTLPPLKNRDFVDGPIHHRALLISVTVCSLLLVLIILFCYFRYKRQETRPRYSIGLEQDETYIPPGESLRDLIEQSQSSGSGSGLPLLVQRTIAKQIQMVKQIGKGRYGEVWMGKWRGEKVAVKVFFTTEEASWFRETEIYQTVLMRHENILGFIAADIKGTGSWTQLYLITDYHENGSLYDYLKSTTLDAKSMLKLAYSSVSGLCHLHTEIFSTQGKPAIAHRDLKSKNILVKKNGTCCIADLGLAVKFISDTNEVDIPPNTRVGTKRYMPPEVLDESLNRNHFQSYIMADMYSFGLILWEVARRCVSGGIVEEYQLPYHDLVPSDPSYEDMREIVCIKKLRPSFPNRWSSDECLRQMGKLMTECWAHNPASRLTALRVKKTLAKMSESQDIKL
Sequence of Serine/threonine-protein kinase pim-1 (Homo sapiens) (P11309 whole entry, looked up): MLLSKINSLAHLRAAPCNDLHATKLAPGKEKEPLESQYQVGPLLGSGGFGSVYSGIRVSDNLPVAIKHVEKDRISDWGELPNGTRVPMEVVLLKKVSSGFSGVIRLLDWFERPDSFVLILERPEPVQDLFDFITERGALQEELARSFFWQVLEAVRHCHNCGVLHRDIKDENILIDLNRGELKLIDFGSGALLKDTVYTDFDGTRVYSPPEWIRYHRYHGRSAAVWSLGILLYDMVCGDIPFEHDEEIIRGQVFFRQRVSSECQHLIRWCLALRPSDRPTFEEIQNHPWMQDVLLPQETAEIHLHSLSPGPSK

CNC(=O)c1ccc(Nc2ncc(C(F)(F)F)c(NCc3nccnc3N(C)S(C)(=O)=O)n2)cc1 [DEFACTINIB]
residual activity [1, 38]: 100% | residual activity [2, 38]: 37% | residual activity [3, 38]: 76% | residual activity [4, 38]: 68% | residual activity [5, 38]: 95% | residual activity [6, 38]: 93% | residual activity [7, 38]: 53% | residual activity [8, 38]: 28% | residual activity [9, 38]: 90% | inhibition [10]: -8.99% | residual activity [11, 38]: 100% | residual activity [12, 38]: 80% | residual activity [13, 38]: 92% | residual activity [14, 38]: 100% | residual activity (Focal adhesion kinase 1; [38]): 0.2% | residual activity [15, 38]: 96% | residual activity [16, 38]: 100% | inhibition [17]: 4.73% | residual activity [18, 38]: 80% | residual activity [19, 38]: 100% | residual activity [20, 38]: 100% | residual activity [21, 38]: 85% | residual activity [22, 38]: 100% | residual activity [23, 38]: 68% | residual activity [24, 38]: 99% | residual activity [25, 38]: 98% | residual activity [26, 38]: 23% | residual activity [27, 38]: 45% | residual activity [28, 38]: 100% | residual activity [29, 38]: 100% | residual activity [30, 38]: 100% | residual activity [31, 38]: 100% | residual activity [32, 38]: 82% | residual activity [33, 38]: 62% | residual activity [34, 38]: 100% | residual activity [35, 38]: 83% | residual activity [36, 38]: 65% | residual activity [37, 38]: 72%

CN(c1ccnc(CNc2nc(Nc3ccc4c(c3)CC(=O)N4)ncc2C(F)(F)F)n1)S(C)(=O)=O [PF-00911705]
residual activity [1, 39]: 89% | residual activity [2, 39]: 65% | residual activity [3, 39]: 100% | residual activity [4, 39]: 26% | residual activity [5, 39]: 13% | residual activity [6, 39]: 79% | residual activity [7, 39]: 7.6% | residual activity [8, 39]: 94% | residual activity [9, 39]: 76% | inhibition [10]: 11.1% | residual activity [11, 39]: 63% | residual activity [12, 39]: 93% | residual activity [13, 39]: 65% | residual activity [14, 39]: 62% | residual activity (Focal adhesion kinase 1; [39]): 4.9% | residual activity [15, 39]: 50% | residual activity [16, 39]: 72% | inhibition [17]: 4.91% | residual activity [18, 39]: 28% | residual activity [19, 39]: 100% | residual activity [20, 39]: 100% | residual activity [21, 39]: 100% | residual activity [22, 39]: 0% | residual activity [23, 39]: 46% | residual activity [24, 39]: 76% | residual activity [25, 39]: 12% | residual activity [26, 39]: 4.4% | residual activity [27, 39]: 11% | residual activity [28, 39]: 71% | residual activity [29, 39]: 72% | residual activity [30, 39]: 100% | residual activity [31, 39]: 97% | residual activity [32, 39]: 77% | residual activity [33, 39]: 76% | residual activity [34, 39]: 76% | residual activity [35, 39]: 48% | residual activity [36, 39]: 3.6% | residual activity [37, 39]: 50%
